Measured values taken from patent US10945435B2, “Imidazopyrimidine derivatives with sulfur containing phenyl and pyridyl substituents” (SYNGENTA PARTICIPATIONS AG, priority 2017, dated 2021).

What was measured:
Format in all cases: in vivo
[1] = system: Plutella xylostella (Diamond Back Moth); assay: Example B12 Plutella xylostella feeding/contact activity; conditions: 120 h, application rate of 200 ppm, L2 larvae on treated artificial diet, 5 days after infestation
Protocol: Plutella xylostella (Diamond Back Moth): Feeding/Contact Activity
24-well microtiter plates with artificial diet were treated with aqueous test solutions prepared from 10,000 ppm DMSO stock solutions by pipetting. After drying, the plates were infested with L2 larvae (10 to 15 per well). The samples were assessed for mortality 5 days after infestation.

[2] = system: Myzus persicae (Green Peach Aphid); assay: Example B9 Myzus persicae feeding/contact activity; conditions: foliar, 144 h, application rate of 200 ppm, mixed-age aphids on sprayed sunflower leaf discs, 6 days after infestation
Protocol: Myzus persicae (Green Peach Aphid): Feeding/Contact Activity
Sunflower leaf discs were placed onto agar in a 24-well microtiter plate and sprayed with aqueous test solutions prepared from 10,000 ppm DMSO stock solutions. After drying, the leaf discs were infested with an aphid population of mixed ages. The samples were assessed for mortality 6 days after infestation.

[3] = system: Euschistus heros (Neotropical Brown Stink Bug); assay: Example B6 Euschistus heros growth inhibition; conditions: 120 h, application rate of 200 ppm, N2 nymphs on sprayed soybean leaves, 5 days after infestation
Protocol: Euschistus heros (Neotropical Brown Stink Bug): Growth Inhibition
Soybean leaves on agar in 24-well microtiter plates were sprayed with aqueous test solutions prepared from 10,000 ppm DMSO stock solutions. After drying the leaves were infested with N2 nymphs. The samples were assessed for growth inhibition in comparison to untreated samples 5 days after infestation. Control of Euschistus heros by a test sample is given when the growth inhibition is higher than the untreated sample.

[4] = system: Euschistus heros (Neotropical Brown Stink Bug); assay: Example B5 Euschistus heros mortality and growth inhibition; conditions: 120 h, application rate of 200 ppm, N2 nymphs on sprayed soybean leaves, 5 days after infestation, read-out: effect in at least one of the two categories (mortality or growth inhibition)
Protocol: Euschistus heros (Neotropical Brown Stink Bug)
Soybean leaves on agar in 24-well microtiter plates were sprayed with aqueous test solutions prepared from 10,000 ppm DMSO stock solutions. After drying the leaves were infested with N2 nymphs. The samples were assessed for mortality and growth inhibition in comparison to untreated samples 5 days after infestation.

[5] = system: Spodoptera littoralis (Egyptian Cotton Leaf Worm); assay: Example B14 Spodoptera littoralis anti-feeding activity; conditions: foliar, 72 h, application rate of 200 ppm, L1 larvae on sprayed cotton leaf discs, 3 days after infestation, read-out: control (anti-feeding effect)
[6] = system: Diabrotica balteata (Corn Root Worm); assay: Example B4 Diabrotica balteata mortality; conditions: 96 h, application rate of 200 ppm, L2 larvae on sprayed maize sprouts, 4 days after infestation
Protocol: (§1) Diabrotica Balteata (Corn Root Worm):
Maize sprouts placed onto an agar layer in 24-well microtiter plates were treated with aqueous test solutions prepared from 10,000 ppm DMSO stock solutions by spraying. After drying, the plates were infested with L2 larvae (6 to 10 per well). The samples were assessed for mortality 4 days after infestation.

[7] = system: Diabrotica balteata (Corn Root Worm); assay: Example B2 Diabrotica balteata mortality and growth inhibition; conditions: 96 h, application rate of 200 ppm, L2 larvae on sprayed maize sprouts, 4 days after infestation, read-out: effect in at least one of the two categories (mortality or growth inhibition)
Protocol: Diabrotica balteata (Corn Root Worm)
Maize sprouts placed onto an agar layer in 24-well microtiter plates were treated with aqueous test solutions prepared from 10,000 ppm DMSO stock solutions by spraying. After drying, the plates were infested with L2 larvae (6 to 10 per well). The samples were assessed for mortality and growth inhibition in comparison to untreated samples 4 days after infestation.

[8] = system: Euschistus heros (Neotropical Brown Stink Bug); assay: Example B7 Euschistus heros feeding/contact activity; conditions: 120 h, application rate of 200 ppm, N2 nymphs on sprayed soybean leaves, 5 days after infestation
Protocol: Euschistus heros (Neotropical Brown Stink Bug): Feeding/Contact Activity
Soybean leaves on agar in 24-well microtiter plates were sprayed with aqueous test solutions prepared from 10,000 ppm DMSO stock solutions. After drying the leaves were infested with N2 nymphs. The samples were assessed for mortality 5 days after infestation.

[9] = system: Plutella xylostella (Diamond Back Moth); assay: Example B13 Plutella xylostella mortality and growth inhibition; conditions: 120 h, application rate of 200 ppm, L2 larvae on treated artificial diet, 5 days after infestation, read-out: effect in at least one of the two categories (mortality or growth inhibition)
Protocol: Plutella xylostella (Diamond Back Moth)
24-well microtiter plates with artificial diet were treated with aqueous test solutions prepared from 10,000 ppm DMSO stock solutions by pipetting. After drying, the plates were infested with L2 larvae (10 to 15 per well). The samples were assessed for mortality and growth inhibition in comparison to untreated samples 5 days after infestation.

[10] = system: Spodoptera littoralis (Egyptian Cotton Leaf Worm); assay: Example B16 Spodoptera littoralis feeding/contact activity; conditions: foliar, 72 h, application rate of 200 ppm, L1 larvae on sprayed cotton leaf discs, 3 days after infestation
Protocol: Spodoptera littoralis (Egyptian Cotton Leaf Worm): Feeding/Contact Activity
Cotton leaf discs were placed onto agar in 24-well microtiter plates and sprayed with aqueous test solutions prepared from 10,000 ppm DMSO stock solutions. After drying the leaf discs were infested with five L1 larvae. The samples were assessed for mortality 3 days after infestation.

[11] = system: Myzus persicae (Green Peach Aphid); assay: Example B10 Myzus persicae systemic activity; conditions: 144 h, test rate of 24 ppm, roots of infested pea seedlings in test solution, 6 days
Protocol: Myzus persicae (Green Peach Aphid). Systemic Activity
Roots of pea seedlings infested with an aphid population of mixed ages were placed directly into aqueous test solutions prepared from 10,000 DMSO stock solutions. The samples were assessed for mortality 6 days after placing seedlings into test solutions.

[12] = system: Frankliniella occidentalis (Western Flower Thrips); assay: Example B8 Frankliniella occidentalis feeding/contact activity; conditions: foliar, 168 h, application rate of 200 ppm, mixed-age population on sprayed sunflower leaf discs, 7 days after infestation
Protocol: Frankliniella occidentalis (Western Flower Thrips): Feeding/Contact Activity
Sunflower leaf discs were placed on agar in 24-well microtiter plates and sprayed with aqueous test solutions prepared from 10,000 DMSO stock solutions. After drying the leaf discs were infested with a Frankliniella population of mixed ages. The samples were assessed for mortality 7 days after infestation.

[13] = system: Bemisia tabaci (Cotton White Fly); assay: Example B1 Bemisia tabaci feeding/contact activity; conditions: foliar, 144 h, application rate of 200 ppm, adult white flies on sprayed cotton leaf discs, 6 days after incubation
Protocol: Bemisia tabaci (Cotton White Fly): Feeding/Contact Activity
Cotton leaf discs were placed on agar in 24-well microtiter plates and sprayed with aqueous test solutions prepared from 10,000 ppm DMSO stock solutions. After drying the leaf discs were infested with adult white flies. The samples were checked for mortality 6 days after incubation.

[14] = system: Plutella xylostella (Diamond Back Moth); assay: Example B11 Plutella xylostella growth inhibition activity; conditions: 120 h, application rate of 200 ppm, L2 larvae on treated artificial diet, 5 days after infestation
[15] = system: Diabrotica balteata (Corn Root Worm); assay: Example B3 Diabrotica balteata growth inhibition; conditions: 96 h, application rate of 200 ppm, L2 larvae on sprayed maize sprouts, 4 days after infestation
Protocol: as §1
Maize sprouts placed onto an agar layer in 24-well microtiter plates were treated with aqueous test solutions prepared from 10,000 ppm DMSO stock solutions by spraying. After drying, the plates were infested with L2 larvae (6 to 10 per well). The samples were assessed for growth inhibition in comparison to untreated samples 4 days after infestation. Control of Diabrotica balteata by a test sample is given when the growth inhibition is higher than in the untreated sample.

CCS(=O)(=O)c1cc(OCC(C)C)cnc1-c1cn2cnc(C(F)(F)F)cc2n1 [Compound P14, 2-(3-ethylsulfonyl-5-isobutoxy-2-pyridyl)-7-(trifluoromethyl)imidazo[1,2-c]pyrimidine]
≥ 80%: mortality at 200 ppm [1] | mortality at 200 ppm [2] | inhibition at 200 ppm [3] | percent effect (mortality or growth inhibition) at 200 ppm [4] | pest or weed control at 200 ppm [5] | mortality at 200 ppm [6] | percent effect (mortality or growth inhibition) at 200 ppm [7] | mortality at 200 ppm [8] | percent effect (mortality or growth inhibition) at 200 ppm [9] | mortality at 200 ppm [10]

CCS(=O)(=O)c1cc(OC[S+](C)[O-])cnc1-c1cn2cnc(C(F)(F)F)cc2n1 (stereo not shown) [Compound P22, 2-[3-ethylsulfonyl-5-(methylsulfinylmethoxy)-2-pyridyl]-7-(trifluoromethyl)imidazo[1,2-c]pyrimidine]
≥ 80%: mortality at 200 ppm [2] | mortality at 24 ppm [11] | mortality at 200 ppm [12] | inhibition at 200 ppm [3] | percent effect (mortality or growth inhibition) at 200 ppm [4] | mortality at 200 ppm [13] | mortality at 200 ppm [8]

CCS(=O)(=O)c1cc(OCC(F)F)cnc1-c1cn2cnc(C(F)(F)F)cc2n1 [Compound P8, 2-[5-(2,2-difluoroethoxy)-3-ethylsulfonyl-2-pyridyl]-7-(trifluoromethyl)imidazo[1,2-c]pyrimidine]
≥ 80%: inhibition at 200 ppm [14] | mortality at 200 ppm [1] | mortality at 200 ppm [2] | mortality at 24 ppm [11] | inhibition at 200 ppm [15] | mortality at 200 ppm [12] | percent effect (mortality or growth inhibition) at 200 ppm [4] | pest or weed control at 200 ppm [5] | mortality at 200 ppm [6] | mortality at 200 ppm [13] | percent effect (mortality or growth inhibition) at 200 ppm [7] | mortality at 200 ppm [8] | percent effect (mortality or growth inhibition) at 200 ppm [9] | mortality at 200 ppm [10]
